Laboratory results taken from patent US20260102359A1, “COMBINATION TREATMENT OF DERMAL AND TRANSDERMAL FIBROTIC DISEASES, DISORDERS AND ASSOCIATED PAIN AND INFLAMMATION” (ERESINA, LLC, priority 2022, published 2026).
Counter-ions that a name gives are not always drawn.

Each compound was assayed on hDMFa myofibroblast cells.

Structure (SMILES) | Compound Myofibroblast Cytotoxicity Activity
O=C(O)CC(=O)O [Cmpd 631, Malonic acid] | ++++
O=C1OC2(c3ccc(O)cc3Oc3cc(O)ccc32)c2ccccc21 [Cmpd 462, Fluorescein] | ++
CCCCOc1ccc(C(=O)CCN2CCCCC2)cc1 [Cmpd 398, Dyclonine HCl] | +++
O=[N+]([O-])O[C@@H]1CO[C@H]2[C@@H]1OC[C@@H]2O [Cmpd 540, Isosorbide 5-mononitrate] | ++
C=C1CC[C@H](O)C/C1=C/C=C1\CCC[C@]2(C)[C@@H]([C@H](C)/C=C/[C@H](C)C(C)C)CC[C@@H]12 [Cmpd 1008, Vitamin D2 (Ergocalciferol)] | +++
NCCCNCCCCNCCCN [Cmpd 887, Spermine] | ++
COCCc1ccc(OCC(O)CNC(C)C)cc1 (centres unmarked) [Cmpd 665, Metoprolol Tartrate] | ++
Clc1ccc(C(Cn2ccnc2)OCc2ccc(Sc3ccccc3)cc2)c(Cl)c1 (centres unmarked) [Cmpd 452, Fenticonazole Nitrate] | ++++
CC(=O)SCC(Cc1ccccc1)C(=O)NCC(=O)OCc1ccccc1 (centres unmarked) [Cmpd 817, Racecadotril] | ++
CC(=O)O.Cc1cc2c(C(C)C)c(O)c(O)c(C=O)c2c(O)c1-c1c(C)cc2c(C(C)C)c(O)c(O)c(C=O)c2c1O [Cmpd 80, Acetate gossypol] | +++++
CCCCC/C=C\C/C=C\C/C=C\CCCCC(=O)O [Cmpd 9, γ-Linolenic Acid] | +++
O=C(O)CCCCCCCCC(=O)O.O=C(O)CCCCCCCCC(=O)O [Cmpd 858, sebacate (decanedioate)] | ++
Cc1cc(C2CCCCC2)n(O)c(=O)c1 [Cmpd 258, Ciclopirox] | ++++
CCCCCCCCCCCCC/C=C/[C@@H](O)[C@@H](N)CO [Cmpd 341, D-erythro-Sphingosine (synthetic)] | ++
Cc1cn(-c2cc(NC(=O)c3ccc(C)c(Nc4nccc(-c5cccnc5)n4)c3)cc(C(F)(F)F)c2)cn1 [Cmpd 712, Nilotinib monohydrochloride monohydrate] | +++
CN(Cc1ccc(C(C)(C)C)cc1)Cc1cccc2ccccc12 [Cmpd 197, Butenafine HCl] | +++
COC(=O)C1=C(C)NC(C)=C(C(=O)OC(C)C)C1c1cccc2nonc12 (centres unmarked) [Cmpd 544, Isradipine (Dynacirc)] | ++
Cc1cnc(Nc2ccc(OCCN3CCCC3)cc2)nc1Nc1cccc(S(=O)(=O)NC(C)(C)C)c1 [Cmpd 937, TG101348 (SAR302503)] | ++++
O[C@H](CS)[C@H](O)CS (racemic) [Cmpd 368, DL-Dithiothreitol] | ++++
O=P([O-])([O-])O.[Na+].[Na+] [Cmpd 874, Sodium phosphate dibasic] | ++++

Structure (SMILES) | Compound Myofibroblast Cytotoxicity Activity
COc1ccccc1N1CCN(CC(O)COc2cccc3ccccc23)CC1 (centres unmarked) [Cmpd 697, Naftopidil] | +++
O=NN(CCCl)C(=O)NCCCl [Cmpd 218, Carmustine] | ++
O=C(O)/C=C/c1ccc(O)c(O)c1 [Cmpd 200, Caffeic acid] | +
Cc1ccc([C@@H]2O[C@H](CO)[C@@H](O)[C@H](O)[C@H]2O)cc1Cc1ccc(-c2ccc(F)cc2)s1.O [Cmpd 209, Canagliflozin (hemihydrate)] | +++++
CC1CCC(C(C)C)C(O)C1 (racemic) [Cmpd 16, (±)-Menthol] | ++
OCc1cc(C(O)CNCCCCCCOCCCCc2ccccc2)ccc1O (centres unmarked) [Cmpd 849, Salmeterol xinafoate] | +++
Cn1c(=O)cc(N2CCC[C@@H](N)C2)n(Cc2ccccc2C#N)c1=O [Cmpd 100, Alogliptin Benzoate] | +++
CS(C)(=O)=O [Cmpd 660, Methyl Sulfonyl Methane (MSM)] | +
CNC(=O)c1c(C)oc2cc(Oc3ncnc4cc(OC)c(OC)cc34)ccc12 [Cmpd 472, Fruquintinib(HMPL-013)] | ++++
O=C(O)C1=C(CSc2nnnn2CS(=O)(=O)O)CS[C@@H]2[C@H](NC(=O)[C@H](O)c3ccccc3)C(=O)N12 [Cmpd 232, Cefonicid (sodium salt)] | ++++
CC(Cc1ccc(O)c(O)c1)C(C)Cc1ccc(O)c(O)c1 (centres unmarked) [Cmpd 722, Nordihydroguaiaretic acid] | +++
CC(=O)[C@H]1CC[C@H]2[C@@H]3CCC4=CC(=O)CC[C@]4(C)[C@H]3CC[C@]12C [Cmpd 799, Progesterone] | +++
N.S=C(S)N1CCCC1 [Cmpd 811, Pyrrolidinedithiocarbamate ammonium] | ++
O=C(O[C@@H]1C[C@@H]2C[C@H]3C[C@H](C1)N2CC3=O)c1c[nH]c2ccccc12 [Cmpd 376, Dolasetron] | ++
Cc1ncc(CO)c(CO)c1O [Cmpd 809, Pyridoxine] | ++
Cc1ccnc(NS(=O)(=O)c2ccc(N)cc2)n1 [Cmpd 895, Sulfamerazine] | +++
O=C1CC[C@@H](C(=O)O)N1 [Cmpd 613, L-Pyroglutamic acid] | ++++
C=CCNC1=C2C[C@@H](C)C[C@H](OC)[C@H](O)[C@@H](C)/C=C(\C)[C@H](OC(N)=O)[C@@H](OC)/C=C\C=C(/C)C(=O)NC(=CC1=O)C2=O [Cmpd 40, 17-AAG (KOS953)] | +++
COc1cc(Nc2ncc3c(n2)-c2ccc(Cl)cc2C(c2c(F)cccc2OC)=NC3)ccc1C(=O)O [Cmpd 685, MLN8237 (Alisertib)] | ++++
COc1ccc2[n-]c([S@@+]([O-])Cc3ncc(C)c(OC)c3C)nc2c1.COc1ccc2[n-]c([S@@+]([O-])Cc3ncc(C)c(OC)c3C)nc2c1.O.O.O.[Mg+2] [Cmpd 428, Esomeprazole Magnesium trihydrate] | ++

Structure (SMILES) | Compound Myofibroblast Cytotoxicity Activity
C=C1/C(=C\C=C2/CCC[C@]3(C)[C@@H]([C@H](C)CCCC(C)C)CC[C@@H]23)C[C@@H](O)C[C@@H]1O [Cmpd 98, Alfacalcidol] | +++
CN[C@H]1CC[C@@H](c2ccc(Cl)c(Cl)c2)c2ccccc21 [Cmpd 861, Sertraline HCl] | ++++
O=C(O)CCCNC(=O)c1cccnc1 [Cmpd 783, Pikamilone] | ++
CN(C)CCC=C1c2ccccc2COc2ccccc21 [Cmpd 385, Doxepin (hydrochloride)] | ++
C[C@H](CCC(=O)NCC(=O)O)[C@H]1CC[C@H]2[C@@H]3[C@H](O)C[C@@H]4C[C@H](O)CC[C@]4(C)[C@H]3C[C@H](O)[C@]12C [Cmpd 488, Glycocholic Acid] | ++++
O=c1ccc2cc(O)c(O)cc2o1 [Cmpd 69] | ++
Cc1cncc(CN2CCC(=C3c4ccc(Cl)cc4CCc4cccnc43)CC2)c1.O=C(O)/C=C/C(=O)O [Cmpd 844, Rupatadine Fumarate] | +++
Cc1ccc(-n2nc(C(C)(C)C)cc2NC(=O)Nc2ccc(OCCN3CCOCC3)c3ccccc23)cc1 [Cmpd 183, BIRB 796 (Doramapimod)] | ++
C#CCN(C)Cc1ccccc1 [Cmpd 757, Pargyline (hydrochloride)] | ++
CCc1oc2ccccc2c1C(=O)c1cc(Br)c(O)c(Br)c1 [Cmpd 164, Benzbromarone] | ++++
CC1Cc2ccccc2N1NC(=O)c1ccc(Cl)c(S(N)(=O)=O)c1 (centres unmarked) [Cmpd 527, Indapamide] | +++
Cl.NCc1ccc(S(N)(=O)=O)cc1 [Cmpd 627, Mafenide hydrochloride] | ++
C=C(C)[C@@H]1CC=C(C)C(=O)C1 [Cmpd 24, (R)-(−)-Carvone] | ++
C#C[C@]1(OC(C)=O)CC[C@H]2[C@@H]3CCC4=C[C@@H](OC(C)=O)CC[C@@H]4[C@H]3CC[C@@]21C [Cmpd 439, Ethynodiol diacetate] | ++
CC(=O)OCC(CCn1cnc2cnc(N)nc21)COC(C)=O [Cmpd 447, Famciclovir] | +++
CC(NCCC(c1ccccc1)c1ccccc1)c1ccccc1 (centres unmarked) [Cmpd 450, Fendiline (hydrochloride)] | +++
C[C@H](CCC(=O)O)[C@H]1CC[C@H]2[C@@H]3[C@H](O)C[C@@H]4C[C@H](O)CC[C@]4(C)[C@H]3CC[C@]12C [Cmpd 245, Chenodeoxycholic Acid] | +++
O=C([O-])CN(CCN(CC(=O)[O-])CC(=O)[O-])CC(=O)[O-].[Ca+2].[Na+].[Na+] [Cmpd 404, edetate calcium disodium] | ++
O=C(O)c1ccc(C(=O)O)cc1 [Cmpd 929, Terephthalic acid] | ++
